Series [1] has as its target yeast canonical poly(A) polymerase (Saccharomyces cerevisiae, UniProt P29468). In words: in vitro poly(A) polymerase assay with yeast canonical poly(A) polymerase control. It counts as biochemical. Particulars: (UAGGGA)5A15 primer. The source says:
(§1) As another example, a specific 45 nt RNA oligonucleotide (UAGGGA)5A15 (SEQ ID NO: 22) was designed to serve as an RNA substrate in the poly(A) polymerase assay.

The target of a further series is T1, Star-PAP (Homo sapiens, UniProt Q9H6E5, D66G).
T1 construct: full length His-Star-PAP was purified over a Ni^++ or glutathione columns; His; T7 tag; made in house; host or cells: E. coli BL21(DE3)
T1 sequence (Q9H6E5 1-874 D66G): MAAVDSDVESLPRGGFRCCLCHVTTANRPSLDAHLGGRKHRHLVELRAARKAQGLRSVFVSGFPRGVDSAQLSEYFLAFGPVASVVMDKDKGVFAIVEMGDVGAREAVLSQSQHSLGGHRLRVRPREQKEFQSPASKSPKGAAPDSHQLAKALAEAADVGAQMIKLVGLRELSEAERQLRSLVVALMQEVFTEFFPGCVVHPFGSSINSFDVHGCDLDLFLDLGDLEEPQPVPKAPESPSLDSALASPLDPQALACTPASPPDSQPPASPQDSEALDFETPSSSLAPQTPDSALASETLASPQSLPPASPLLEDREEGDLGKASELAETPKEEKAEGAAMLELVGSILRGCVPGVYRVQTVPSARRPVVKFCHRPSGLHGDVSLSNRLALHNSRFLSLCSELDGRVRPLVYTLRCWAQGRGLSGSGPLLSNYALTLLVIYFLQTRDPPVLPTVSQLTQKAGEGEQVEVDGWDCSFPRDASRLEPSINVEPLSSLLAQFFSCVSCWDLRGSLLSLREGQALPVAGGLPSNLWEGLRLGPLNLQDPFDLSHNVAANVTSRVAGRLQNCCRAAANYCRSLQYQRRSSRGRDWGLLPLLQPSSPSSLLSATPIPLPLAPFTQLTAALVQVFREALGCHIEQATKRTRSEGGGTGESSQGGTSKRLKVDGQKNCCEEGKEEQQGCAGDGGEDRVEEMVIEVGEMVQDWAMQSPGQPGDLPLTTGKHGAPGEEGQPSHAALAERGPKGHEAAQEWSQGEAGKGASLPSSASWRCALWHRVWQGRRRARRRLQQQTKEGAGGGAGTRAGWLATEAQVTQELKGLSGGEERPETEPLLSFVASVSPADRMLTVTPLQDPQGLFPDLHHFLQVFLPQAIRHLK
In words: in vitro poly(A) polymerase assay with Star-PAP. The series is classed as biochemical.
From the text: The poly(A) polymerase activity of PIP-PAPs such as Star-PAP, natural or artificial variants, homologues or fragments thereof may be tested by methods known in the art. (See e.g., Kyriakopoulou et al., (2001) J Biol Chem, 276:33504-11).
as §1
Because Star-PAP associates with the PI4,5P2 generating enzyme PIPKIα; the effect of exogenous phosphoinositides on the in vitro poly(A) polymerase activity of Star-PAP was evaluated. Star-PAP was incubated in the presence of various phosphoinositides (PI, PI3P, PI4P, PI5P, PI3,4P2, PI3,5P2, PI4,5P2 and PI3,4,5P3) or buffer only as a control. Following a brief incubation period the remaining components of the assay were added and allowed to react. In the absence of any phosphoinositide species, Star-PAP was able to extend an RNA primer to generate a modest poly(A) tail. In the presence of PI4,5P2 the incorporation of ATP into poly(A) tails was enhanced. […] This effect was specific for PI4,5P2 as all other inositol phospholipids assayed had no effect on Star-PAP activity in this assay.

Series [2] has as its target Star-PAP complex-associated kinase activity (CKI). Particulars: printed beside inhibitor name/vendor and in FIG. 23 legend; inhibitors used at 0.1-100 μM on FLAG-Star-PAP complex; cited from earlier work.
The test system of series [3] is T2, Star-PAP complex-associated kinase activity (CKI).
T2 construct: other: PI4,5P2 micelles, 12.5-100 μM; phosphorylation of Star-PAP by the complex-associated kinase activity; Flag-Star-PAP and FLAG-PAPα were expressed in HEK 293 cells and purified on anti-FLAG M2 resin
In words: in vitro protein kinase assay of purified FLAG-Star-PAP complex: phosphorylation of Star-PAP by the complex-associated kinase activity. The series is classed as biochemical, Human. Particulars: for phosphorylation of Star-PAP by the complex-associated kinase activity: inhibitor 0.1-100 μM, 45 minutes on ice before ATP.
Procedure: Synthetic PI4,5P2 (Echelon Biosciences Inc.) was resuspended in 50 mM Tris-HCL pH 7.9 at 2.5 mM and subjected to bath sonication to form micelles and used at final concentration of 12.5-100 μM.
The kinase assays were performed as described above in section 8 for the Star-PAP complexes. Except for inhibitor studies, all reaction components except ATP were incubated with inhibitors for 45 minutes on ice prior to starting the assay.

In another series the test system is HO-1 mRNA. As to the kind of experiment: quantitative real-time PCR of HO-1 mRNA in HEK 293 cells. The note with it: HEK 293 cells pretreated with CKI inhibitor (IC261 50 μM, CKI-7 250 μM, 2.5 h). (Real-time PCR tracks product formation cycle by cycle.)
The next series deals with T3, CKIα (Rattus norvegicus, UniProt P97633).
T3 construct: made in house; host or cells: HEK 293 cells
T3 sequence (P97633 1-325): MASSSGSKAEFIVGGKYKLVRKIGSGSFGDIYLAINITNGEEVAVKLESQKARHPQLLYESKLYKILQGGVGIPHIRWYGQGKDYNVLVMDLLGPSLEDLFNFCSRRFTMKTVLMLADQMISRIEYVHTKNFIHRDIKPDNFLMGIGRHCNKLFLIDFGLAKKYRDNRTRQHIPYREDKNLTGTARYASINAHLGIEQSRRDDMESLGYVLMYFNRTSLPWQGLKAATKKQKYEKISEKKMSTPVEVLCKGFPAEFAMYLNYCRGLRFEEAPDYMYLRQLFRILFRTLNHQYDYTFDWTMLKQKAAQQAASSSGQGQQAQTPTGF
As to the kind of experiment: in vitro phosphorylation of heat inactivated FLAG-Star-PAP by purified FLAG-CKIα. It counts as biochemical. Particulars: 50 μM. How it is done: Flag-Star-PAP and FLAG-PAPα were expressed in HEK 293 cells and purified on anti-FLAG M2 resin. Purified PAP complexes were subject to an in vitro protein kinase assay as follows. Protein kinase assays were performed in 1× kinase buffer (50 mM Tris-HCl pH 7.5, 10 mM MgCl2 and 0.5 mM EGTA). Assays were initiated by the addition of 10 μM ATP and 5 μCi γ^32P ATP to the reaction mix. Substrates included 100 μg/ml of the generic protein kinase substrates myelin basic protein (MBP) or casein. Heat inactivation of the endogenous kinase activity in the Star-PAP complex was destroyed by heating for 15 minutes at 65° C. The Star-PAP purified complex contained protein kinase activity toward both MBP and casein while the PAPα complex contained almost no detectable protein kinase activity (FIG. 19).
Casein Kinase Iα (CKIα), is a protein kinase found in nuclear speckles; moreover, CKIα activity is inhibited by PI4,5P2. […] FLAG proteins were expressed and purified as follows. Human Star-PAP and rat CKIα cDNAs were cloned in to the pFLAG-1 mammalian expression vector (Sigma). […]
Before the phosphorylation assay, endogenous kinase activity in the FLAG complex was destroyed by heat inactivation; no detectable phosphorylation activity was detected after heat inactivation. […]

For a further series, the target named is PAPα (Homo sapiens, UniProt P51003). In words: in vitro poly(A) polymerase assay with PAPα. The note with it: 50 μM inositol phospholipid micelles. It counts as biochemical.
Chain of PAPα (P51003 whole entry): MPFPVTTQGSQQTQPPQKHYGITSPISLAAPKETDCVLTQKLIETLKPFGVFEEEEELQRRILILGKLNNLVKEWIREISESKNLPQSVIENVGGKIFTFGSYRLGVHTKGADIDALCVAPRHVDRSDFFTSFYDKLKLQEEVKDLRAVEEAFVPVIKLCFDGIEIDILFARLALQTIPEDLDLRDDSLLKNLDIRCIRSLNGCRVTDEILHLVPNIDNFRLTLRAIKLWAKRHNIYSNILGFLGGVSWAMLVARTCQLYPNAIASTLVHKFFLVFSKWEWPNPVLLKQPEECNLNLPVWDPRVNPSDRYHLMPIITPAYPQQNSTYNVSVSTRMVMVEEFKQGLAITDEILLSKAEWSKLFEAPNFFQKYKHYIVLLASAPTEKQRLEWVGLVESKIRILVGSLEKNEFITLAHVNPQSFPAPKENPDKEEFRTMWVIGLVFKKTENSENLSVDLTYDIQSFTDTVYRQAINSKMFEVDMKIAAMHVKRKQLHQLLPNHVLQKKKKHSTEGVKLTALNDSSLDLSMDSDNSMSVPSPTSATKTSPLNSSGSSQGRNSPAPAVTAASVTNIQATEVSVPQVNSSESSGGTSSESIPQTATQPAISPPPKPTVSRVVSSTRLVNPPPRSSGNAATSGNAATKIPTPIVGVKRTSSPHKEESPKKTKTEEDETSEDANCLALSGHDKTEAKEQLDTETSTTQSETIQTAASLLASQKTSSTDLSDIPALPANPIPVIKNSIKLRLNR
For the next series, the target named is T4, Star-PAP complex (Homo sapiens, UniProt Q9H6E5, D66G).
T4 construct: made in house; host or cells: HEK-293 cells stably expressing FLAG-Star-PAP, treated with tBHQ before purification
T4 sequence (Q9H6E5 1-874 D66G): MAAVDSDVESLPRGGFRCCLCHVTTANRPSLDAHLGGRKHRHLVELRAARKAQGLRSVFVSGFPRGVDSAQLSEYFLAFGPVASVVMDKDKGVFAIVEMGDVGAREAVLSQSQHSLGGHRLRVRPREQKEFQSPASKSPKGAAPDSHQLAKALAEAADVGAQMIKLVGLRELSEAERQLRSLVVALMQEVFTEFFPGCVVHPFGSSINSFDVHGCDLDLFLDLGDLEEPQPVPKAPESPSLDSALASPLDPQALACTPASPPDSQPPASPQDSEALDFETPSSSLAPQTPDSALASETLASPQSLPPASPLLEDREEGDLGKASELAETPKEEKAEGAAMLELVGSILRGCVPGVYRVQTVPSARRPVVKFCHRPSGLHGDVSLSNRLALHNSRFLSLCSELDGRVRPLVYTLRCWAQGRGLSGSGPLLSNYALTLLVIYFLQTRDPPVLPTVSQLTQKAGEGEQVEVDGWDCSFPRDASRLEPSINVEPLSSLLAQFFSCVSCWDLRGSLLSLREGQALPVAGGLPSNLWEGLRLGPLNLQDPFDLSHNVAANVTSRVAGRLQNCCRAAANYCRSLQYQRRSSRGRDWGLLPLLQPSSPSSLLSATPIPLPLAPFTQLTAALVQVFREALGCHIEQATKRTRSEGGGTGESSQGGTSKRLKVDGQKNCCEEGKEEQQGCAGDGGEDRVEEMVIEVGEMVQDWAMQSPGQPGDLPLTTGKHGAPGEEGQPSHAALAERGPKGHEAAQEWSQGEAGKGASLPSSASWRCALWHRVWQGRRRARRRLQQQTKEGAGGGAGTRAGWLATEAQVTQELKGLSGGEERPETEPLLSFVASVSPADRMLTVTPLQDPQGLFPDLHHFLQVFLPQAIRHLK
In words: PAP assay with Star-PAP complex purified from stably expressing HEK-293 cells treated with tBHQ. It counts as cell-based. An excerpt:
Treatment of cells with tBHQ caused a large increase in Star-PAP complex activity for the initiation of polyadenylation. […] PI4,5P2 produced by PIPKIα in the complex may then control the processivity of Star-PAP, resulting in a lengthened poly(A) tail. In this manner Star-PAP may respond to oxidative stress signals, and potential other signals, to efficiently regulate the 3′ end formation and polyadenylation by the Star-PAP complex.

Entries after “also recorded” stand apart in the source; their conditions may differ.

A word on the IC50: it is the midpoint of a concentration-inhibition curve.

Chain of yeast canonical poly(A) polymerase (P29468 whole entry): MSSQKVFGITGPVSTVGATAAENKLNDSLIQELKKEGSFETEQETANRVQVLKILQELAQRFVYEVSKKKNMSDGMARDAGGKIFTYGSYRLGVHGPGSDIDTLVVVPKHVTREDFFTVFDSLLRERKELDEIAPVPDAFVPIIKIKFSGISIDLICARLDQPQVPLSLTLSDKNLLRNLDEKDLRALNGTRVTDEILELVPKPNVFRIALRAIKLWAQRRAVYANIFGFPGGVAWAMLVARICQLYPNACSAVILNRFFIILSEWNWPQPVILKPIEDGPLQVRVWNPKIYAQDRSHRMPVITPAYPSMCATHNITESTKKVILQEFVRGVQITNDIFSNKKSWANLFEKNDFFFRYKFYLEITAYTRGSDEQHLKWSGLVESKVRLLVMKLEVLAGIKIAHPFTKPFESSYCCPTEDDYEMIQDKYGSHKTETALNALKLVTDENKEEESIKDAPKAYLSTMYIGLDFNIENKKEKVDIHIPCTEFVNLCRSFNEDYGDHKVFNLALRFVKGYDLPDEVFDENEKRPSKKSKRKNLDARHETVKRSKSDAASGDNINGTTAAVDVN

In the case of cordycepin triphosphate, the “yeast canonical poly(A) polymerase activity with chain terminator” value in series [1] is “inhibited in a dose dependent fashion”. Besides, at Star-PAP ((UAGGGA)5A15 primer), the “Star-PAP poly(A) polymerase activity with chain terminator” value is listed as “inhibited in a dose dependent fashion”.
Turning to `NCCNS(=O)(=O)c1ccc(Cl)c2ccncc12` [CKI-7], the IC50 in series [2] is about 6 µM. Moreover, the “phosphorylation of Star-PAP by the complex-associated kinase activity” value in series [3] is “block the phosphorylation of Star-PAP by the complex-associated kinase activity in a dose dependent fashion”. Besides, the “basal levels of HO-1 mRNA” value in the series with HO-1 mRNA is listed as “reduce HO-1”.
For the molecule `COc1cc(OC)c(C=C2C(O)=Nc3ccccc32)c(OC)c1` [IC261], the “phosphorylation of Star-PAP by CKIα” value on CKIα was “blocked; also recorded: can block CKIα phosphorylation of Star-PAP”. Further, the IC50 in series [2] is 11 µM. Further, the “phosphorylation of Star-PAP by the complex-associated kinase activity” value in series [3] is on record as “block the phosphorylation of Star-PAP by the complex-associated kinase activity in a dose dependent fashion”. Further, the “basal levels of HO-1 mRNA” value with HO-1 mRNA is recorded as “reduce HO-1”.
For “phosphatidylinositol-4,5-bisphosphate [PI4,5P2]”, at CKIα, the “phosphorylation of Star-PAP by CKIα” value is “blocked; also recorded: can block CKIα phosphorylation of Star-PAP”. The “effect of phosphoinositide on PAPα activity” value on PAPα is “no phosphoinositides tested, including PI4,5P2 stimulated the activity of PAPα”. In addition, the “concentration at which phosphorylation of FLAG-Star-PAP was inhibited (as low as)” value in series [3] (PI4,5P2 micelles, 12.5-100 μM) amounted to 12.5 µM. Besides, the “effect of phosphoinositide on Star-PAP poly(A) polymerase activity (incorporation of ATP into poly(A) tails)” value at Star-PAP (50 μM inositol phospholipid micelles) was “enhanced”. Besides, the “Star-PAP processivity (length of the poly(A) tails)” value at Star-PAP complex (Star-PAP isolated from tBHQ-treated cells, time course) is listed as “stimulated Star-PAP processivity, increasing the length of the poly(A) tails”.
For `CC(C)(C)c1cc(O)ccc1O` [tBHQ, tert-butylhydroquinone], the “increase in enzymatic activity of Star-PAP complex over Star-PAP from control cells” value at Star-PAP complex (cells treated with 100 μM tBHQ) was “more than 15 fold”.

B1: Star-PAP: novel PIP-regulated poly(A) polymerase, SEQ ID NO: 2 (protein, listed as Homo sapiens)
chain: MAAVDSDVESLPRGGFRCCLCHVTTANRPSLDAHLGGRKHRHLVELRAARKAQGLRSVFVSGFPRGVDSAQLSEYFLAFGPVASVVMDKDKGVFAIVEMGDVGAREAVLSQSQHSLGGHRLRVRPREQKEFQSPASKSPKGAAPDSHQLAKALAEAADVGAQMIKLVGLRELSEAERQLRSLVVALMQEVFTEFFPGCVVHPFGSSINSFDVHGCDLDLFLDLGDLEEPQPVPKAPESPSLDSALASPLDPQALACTPASPPDSQPPASPQDSEALDFETPSSSLAPQTPDSALASETLASPQSLPPASPLLEDREEGDLGKASELAETPKEEKAEGAAMLELVGSILRGCVPGVYRVQTVPSARRPVVKFCHRPSGLHGDVSLSNRLALHNSRFLSLCSELDGRVRPLVYTLRCWAQGRGLSGSGPLLSNYALTLLVIYFLQTRDPPVLPTVSQLTQKAGEGEQVEVDGWDCSFPRDASRLEPSINVEPLSSLLAQFFSCVSCWDLRGSLLSLREGQALPVAGGLPSNLWEGLRLGPLNLQDPFDLSHNVAANVTSRVAGRLQNCCRAAANYCRSLQYQRRSSRGRDWGLLPLLQPSSPSSLLSATPIPLPLAPFTQLTAALVQVFREALGCHIEQATKRTRSEGGGTGESSQGGTSKRLKVDGQKNCCEEGKEEQQGCAGDGGEDRVEEMVIEVGEMVQDWAMQSPGQPGDLPLTTGKHGAPGEEGQPSHAALAERGPKGHEAAQEWSQGEAGKGASLPSSASWRCALWHRVWQGRRRARRRLQQQTKEGAGGGAGTRAGWLATEAQVTQELKGLSGGEERPETEPLLSFVASVSPADRMLTVTPLQDPQGLFPDLHHFLQVFLPQAIRHLK
In the case of B1, the “specific poly(A) polymerase activity relative to canonical PAPα” value in the series with Star-PAP (side-by-side with PAPα) came out at 1.3 fold.

The record behind these values is patent US8088574B2, “Poly(A) polymerase” (Wisconsin Alumni Research Foundation, priority 2007, dated 2012).
